Data from patent US4490364A, “CCK Agonists II” (The Salk Institute for Biological Studies, priority 1983, dated 1984).
Non-standard residues stand in square brackets, D forms with d. Residues, ends and D or L forms follow the SMILES beside them. sY = N[C@@H](Cc1ccc(OS(=O)(=O)O)cc1)C(=O)O

Columns and labels:
mouse = assay: anticonvulsive effect against picrotoxin-induced seizures in the mouse; type: in vivo; conditions: peptide about 0.8 micromoles per kg parenterally, then picrotoxin i.p., relative to CCK(1-8) = 100%
Procedure: The anticonvulsive effect is measured by the method as generally described in The European J. of Pharm., 65, 297 (1980). More specifically, a mouse is first injected parenterally with the peptide being tested with a single dose equal to about 0.8 micromoles per kilogram of body weight. Thereafter, picrotoxin is injected i.p. in an amount equal to about […] of body weight. The parameters that are measured: time until first tremor, time until first clonic seizure, time until first tonic seizure and time of latentia until death, measured from the time of injection of the picrotoxin.

[1] = Ondetti and Pluscec; cited from earlier work
[2] = test system: secretion of gastric acid; conditions: i.v. at low dosages; cited from earlier work
muscle sphincter Oddii = conditions: cited from earlier work
[3] = test system: isolated strips of rabbit gall bladder; assay: contraction of the gall bladder (CCK-activity), isolated strips of rabbit gall bladder; type: cell-based
Procedure: (§1) To determine the effectiveness of the various synthetic peptides, they are tested for their ability to stimulate the contraction of the gall bladder, for gastrinic activity in the stomach and for their anticonvulsive effect. Certain well known tests are carried out, and the results are measured and compared to the activity of CCK(1-8). Some of the results are given as a percentage relative to the activity of CCK(1-8). The ability to stimulate the contraction of the gall bladder is measured using a modified method of Amer and Becvar, described in J. Endocrinology, 43, 637 (1969) and employing isolated strips of rabbit gall bladder.

perfused rat stomach = assay: gastrinic activity on perfused rat stomach, conductometric titration of HCl liberated after iv administration; type: in vivo
Procedure: as §1

Compound	Delay until first tonic seizure (efficacy) (mouse) [%]	Delay until time of death (efficacy) (mouse) [%]	activity compared with the complete molecule of cholecystokinin-pancreozymin [1]	gastrinic activity in causing secretion of gastric acid [2]	action on the muscle sphincter Oddii (muscle sphincter Oddii)	CCK-activity % /CCK (1-8) 100%/ ([3]; relative to CCK(1-8) = 100%, contraction of isolated rabbit gall bladder strips) [%]	gastrinic activity % /Pentagastrin 100%/ (perfused rat stomach; relative to pentagastrin = 100%, perfused rat stomach, iv) [%]	CCK activity compared with CCK(1-8) ([3]; result in words)	gastrinic activity (perfused rat stomach; result in words)
CSCC[C@H](NC(=O)[C@H](Cc1ccc(OS(=O)(=O)O)cc1)NC(=O)[C@@H](N)CC(=O)O)C(=O)NCC(=O)N[C@@H](Cc1c[nH]c2ccccc12)C(=O)N[C@@H](CCSC)C(=O)N[C@@H](CC(=O)O)C(=O)N[C@@H](Cc1ccccc1)C(N)=O [CCK (1-8)]	100	100	considerably higher activity than the complete molecule of cholecystokinin-pancreozymin	some gastrinic activity	strong relaxing action	–	–	–	–
CSCC[C@H](NC(=O)[C@H](Cc1c[nH]c2ccccc12)NC(=O)[C@@H](C)NC(=O)[C@H](CCSC)NC(=O)[C@H](Cc1ccc(OS(=O)(=O)O)cc1)NC(C)=O)C(=O)N[C@@H](CC(=O)O)C(=O)N[C@@H](Cc1ccccc1)C(N)=O [[D-Ala^4]-Ac-CCK (2-8), Ac--Tyr(OSO3 Na)--Met--D--Ala--Trp--Met--Asp--Phe--NH2] (Ac-[sY]M[dA]WMDF-NH2)	100	126	–	–	–	40	0	–	–
H--Asp--Tyr(OSO3 Na)--Nle--Gly--Trp--Nle--Hyp(OSO3 Na)--Tyr(OCH3)--NH2	–	–	–	–	–	–	–	CCK activity significantly greater than CCK(1-8)	substantially no gastrinic activity
